Laboratory results published in paper PMC5601071 (Frontiers in Pharmacology, 2017).
Like-named read-outs stand apart in the source and are kept apart here. Residues, ends and D or L forms follow the SMILES beside them.

Key:
[1] = molecular target: T1, TREK-1 channel (hTREK-1/HEK cells) (Homo sapiens, UniProt O95069); conditions: ref Mazella et al., 2010, Moha ou Maati et al., 2011, cited from earlier work
T1 construct: expressed in transfected cells
T1 sequence (O95069 1-426): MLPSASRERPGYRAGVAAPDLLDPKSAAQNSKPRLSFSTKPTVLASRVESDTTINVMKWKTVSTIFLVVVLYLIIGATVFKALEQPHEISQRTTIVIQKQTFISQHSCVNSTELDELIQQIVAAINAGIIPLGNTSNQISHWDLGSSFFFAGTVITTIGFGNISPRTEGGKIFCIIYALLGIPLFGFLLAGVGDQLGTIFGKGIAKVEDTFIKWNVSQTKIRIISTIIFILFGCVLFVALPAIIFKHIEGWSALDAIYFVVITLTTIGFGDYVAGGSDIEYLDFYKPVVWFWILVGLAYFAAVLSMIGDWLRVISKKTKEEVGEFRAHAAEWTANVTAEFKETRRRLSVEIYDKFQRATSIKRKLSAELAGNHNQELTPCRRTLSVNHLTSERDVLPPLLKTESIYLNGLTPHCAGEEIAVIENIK
Text: Depression is a devastating mental disorder that affects 20% of the population worldwide. Despite their proven efficacy, antidepressants present a delayed onset of action and serious adverse effects. Seven years ago, we described spadin (PE 12-28) as a promising endogenous peptide with antidepressant activity. Spadin specifically blocks the TREK-1 channel. […] In order to improve in vivo spadin stability and bioavailability, we screened spadin analogs and derivatives. From the study of spadin blood deg ... || Depression is one of the most common mood disorders that represents a heavy economic burden in industrialized countries (Smith, [2014]). Severe depression affects 2–5% of US citizens and up to 20% of the population suffer from mild depression (Nestler et al., [2002]; Maletic et al., [2007]; Krishnan and Nestler, [2008]; Kessler et al., [2012]). Depression is a complex syndrome with a variety of causes mostly genetic and environmental (Nestler et al., [2002]).

[2] = molecular target: T1, TREK-1 channel (hTREK-1/HEK cells); experiment: TREK-1 current inhibition, whole-cell patch-clamp on hTREK-1/HEK cell line; format: cell-based; conditions: hTREK-1/HEK cells
Method: The human TREK-1/HEK cell line (Moha ou Maati et al., [2011]) and the native HEK293 cell line were maintained in Dulbecco's Modified Eagle's Medium (DMEM) supplemented with 10% (v/v) heat-inactivated fetal bovine serum, 1% (v/v) penicillin-streptomycin, 1% Glutamax. For the hTREK-1/HEK cells, 0.5 mg/ml G418 were added to the medium.
Cells were incubated in a humidified atmosphere containing 5% CO2. For electrophysiological measurements, cells were plated at a density of 20,000 cells per 35 mm dish.
Cells from the hTREK-1/HEK cell line were seeded at a density of 20,000 cells/35 mm dish. Electrophysiological recordings were performed 24–48 h after plating using the whole-cell configuration of patch-clamp technique. TREK-1 currents (ITREK−1) were recorded using RK400 patch-clamp amplifier (Axon Instrument, USA). They were low-pass filtered at 3 kHz and digitized at 10 kHz using a 12-bit analog-to-digital converter digidata (1322 series, Axon Instrument, USA). ITREK−1amplitudes were expressed as current densities [current amplitude (pA)/membrane capacitance (pF)]. The results were expressed as mean ± SEM (standard error of the mean).
Cells were continuously perfused using an external bath solution containing in mM: 150 NaCl, 5 KCl, 3 MgCl2, 1 CaCl2, and 10 HEPES. The bath solution was initially adjusted to pH 7.4 with NaOH. The intra-pipette solution contained in mM: 155 KCl, 3 MgCl2, 5 EGTA, and 10 HEPES adjusted to pH 7.2 with KOH. In order to measure ITREK−1, a cocktail of potassium channel blockers was added to the bath solution. This cocktail contained: 3 mM 4-AP (4-aminopyridine), 10 mM TEA (tetraethylammonium), 10 μM Glibenclamide, 100 nM Apamin, and 50 nM Charybdotoxin. Data acquisition was carried out using a computer (Dell Pentium) with pClamp software (Axon Instrument, USA). Whole-cell currents were generated by running a pulse or ramp protocol every 5 s from −100 to +60 mV with a holding potential maintained at −80 mV. To evaluate the inhibitory effect on TREK-1 channels of shortened spadin analogs compared with spadin, cells were first activated by 10 μM arachidonic acid (AA). Dose-response curves were realized to compare spadin-analog effects with spadin using Origin 8.6 (Northampton, MA, USA).
Patch-clamp recording data were analyzed using Clampfit (Molecular Devices, USA). I = f(V) curves were obtained from −100 to +60 mV ramp. Data were presented as mean ± SEM.

[3] = In vitro degradation / half-life time in serum; format: in vitro ADME, mouse; conditions: mouse serum, 30 min, 37°C (method b20: 10 nmoles in 200 μl serum, room temperature); HPLC
Method: […] Incubations were stopped by direct acidification (5 μl of 2.5 M HCl), loaded in C-18 sepack cartridges, lyophilized, resuspended in 20% acetonitrile before loading onto HPLC for analysis of PE degradation/stability. Elutions of HPLC products were carried out by means of a 50-min linear gradient of acetonitrile from 20 to 70% at a flow rate of 1 ml/min. The amount of the intact PE for each incubation time was expressed as the percent of the initial amount of spadin.

mouse serum = conditions: 37°C (Figure 1 legend), room temperature, up to 60 min

CC[C@H](C)[C@H](NC(=O)[C@@H]1CCCN1C(=O)CNC(=O)[C@H](CO)NC(=O)[C@H](Cc1c[nH]c2ccccc12)NC(=O)[C@H](CCCNC(=N)N)NC(=O)[C@@H]1CCCN1C(=O)[C@H](CC(C)C)NC(=O)[C@@H]1CCCN1C(=O)[C@H](C)N)C(=O)NCC(=O)N[C@H](C(=O)N[C@@H](CO)C(=O)N[C@@H](Cc1c[nH]c2ccccc12)C(=O)NCC(=O)N[C@@H](CC(C)C)C(=O)N[C@@H](CCCNC(=N)N)C(=O)O)C(C)C [PE 12-28 (Spadin), reference compound] (H-APLPRWSGPIGVSWGLR-OH)
IC50 ([1]; Moha Ou Maati et al., 2012, read-out: IC50 for TREK-1 block (spadin)): 40 to 60 nM
inhibition at 0.1 µM ([2]; HEK293, peptide 100 nM, TREK-1 first activated with 10 μM arachidonic acid (AA), current density at 0 mV, mean ± SEM, n = cells, read-out: % of TREK-1 inhibition): 44.4 ± 8.82%
IC50 ([2]; dose-response curves at 0 mV, activated by 10 μM AA): 40 nM
spadin remaining after incubation with serum [3]: disappearance of almost all spadin

APLPRWSGPIGVSWGLR
fragment found (mouse serum): PE 12-27

CNCCC(Oc1ccc(C(F)(F)F)cc1)c1ccccc1 (stereo not drawn) [fluoxetine]
IC50 ([1]; read-out: IC50 for TREK-1 block (fluoxetine)): ~6000 nM
